biological target: T1, EP4 receptors (Homo sapiens, UniProt P35408); assay: Radioligand binding, [3H]PGE2, HEK-293 cells stably expressing EP4 receptors; settings: [3H]PGE2 competition
T1 construct: expressed in transfected cells; host or cells: HEK-293
Protocol: HEK-293 cells stably expressing the human or feline FP receptor, or EP1, EP2, or EP4 receptors were washed with TME buffer, scraped from the bottom of the flasks, and homogenized for 30 sec using a Brinkman PT 10/35 polytron. TME buffer was added to achieve a final 40 ml volume in the centrifuge tubes (the composition of TME is 100 mM TRIS base, 20 mM MgCl2, […]; 10N HCl is added to achieve a pH of 7.4).
The cell homogenate was centrifuged at 19000 r.p.m. for 20 min at 4° C. using a Beckman Ti-60 rotor. The resultant pellet was resuspended in TME buffer to give a final 1 mg/ml protein concentration, as determined by Biorad assay. Radioligand binding competition assays vs. [^3H-]17-phenyl PGF2α (5 nM) were performed in a 100 μl volume for 60 min. Binding reactions were started by adding plasma membrane fraction. The reaction was terminated by the addition of 4 ml ice-cold TRIS-HCl buffer and rapid filtration through glass fiber GF/B filters using a Brandel cell harvester. The filters were washed 3 times with ice-cold buffer and oven dried for one hour.
[^3H-]PGE2 (specific activity 180 Ci mmol) was used as the radioligand for EP receptors. [^3H]17-phenyl PGF2α was employed for FP receptor binding studies. Binding studies employing EP1, EP2, EP4 and FP receptors were performed in duplicate in at least three separate experiments. A 200 μl assay volume was used. Incubations were for 60 min at 25° C. and were terminated by the addition of 4 ml of ice-cold 50 mM TRIS-HCl, followed by rapid filtration through Whatman GF/B filters and three additional 4 ml washes in a cell harvester (Brandel). Competition studies were performed using a final concentration of 5 nM [^3H]-PGE2, or 5 nM [^3H] 17-phenyl PGF2α and non-specific binding determined with 10^−5M of unlabeled PGE2, or 17-phenyl PGF2α, according to receptor subtype studied.

T1 sequence (P35408 whole entry): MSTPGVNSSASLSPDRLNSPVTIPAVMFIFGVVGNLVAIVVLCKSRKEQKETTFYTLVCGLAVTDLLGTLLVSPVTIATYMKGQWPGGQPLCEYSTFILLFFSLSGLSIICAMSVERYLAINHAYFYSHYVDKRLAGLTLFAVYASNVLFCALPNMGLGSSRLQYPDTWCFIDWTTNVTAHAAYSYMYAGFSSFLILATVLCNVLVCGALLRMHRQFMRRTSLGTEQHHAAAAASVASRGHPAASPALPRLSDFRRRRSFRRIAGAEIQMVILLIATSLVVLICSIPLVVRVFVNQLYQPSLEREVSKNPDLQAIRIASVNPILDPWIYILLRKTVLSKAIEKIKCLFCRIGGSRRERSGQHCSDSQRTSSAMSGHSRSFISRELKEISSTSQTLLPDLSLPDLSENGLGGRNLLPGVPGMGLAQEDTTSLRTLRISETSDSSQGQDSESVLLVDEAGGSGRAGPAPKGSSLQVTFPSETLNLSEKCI

Which Ki does the source give for `CCCCCC(O)c1ccc([C@H]2C(=O)CC[C@@H]2C/C=C\CCCC(=O)O)cc1` (stereo partly drawn) [compound 5] here?
The Ki was 4210 nM.

For `CCCCCC(O)c1ccc([C@@H]2[C@@H](C/C=C\CCCC(=O)O)CC[C@H]2Cl)cc1` (stereo partly drawn) [compound 6], which Ki is on record?
The Ki was 1030 nM.

With `CCCCCC(O)c1ccc([C@H]2C(=O)C=C[C@@H]2CCCc2ccc(C(=O)O)s2)cc1` (stereo partly drawn) [compound 11] as the compound, how does the Ki read?
Its Ki is 1940 nM.
